# Data published in paper PMC12142871 (BMC Psychiatry, 2025).
# Experiments:
# [1] = Therapeutic drug monitoring: steady-state trough serum sertraline concentration
# [2] = dose-response meta-analysis; cited from earlier work
# [3] = cited from earlier work
# [4] = Female, Adults, median (1st quartile, 3rd quartile), listed as sertraline
structure (smiles),measurement,setting,value
CN[C@H]1CC[C@@H](c2ccc(Cl)c(Cl)c2)c2ccccc21 [Sertraline],C/D (dose-adjusted serum concentration),"[1]; Adults, median (1st quartile, 3rd quartile)","0.50 (0.33, 0.71) (ng/ml)/(mg/d)"
same,C/D (dose-adjusted serum concentration),"[1]; Adults, median (1st quartile, 3rd quartile), listed as sertraline",0.50 (ng/ml)/(mg/d)
same,C/D (dose-adjusted serum concentration),"[1]; Children and Adolescents, median (1st quartile, 3rd quartile)","0.44 (0.31, 0.67) (ng/ml)/(mg/d)"
same,C/D (dose-adjusted serum concentration),"[1]; Children and Adolescents, median (1st quartile, 3rd quartile), listed as sertraline",0.44 (ng/ml)/(mg/d)
same,Serum Concentration,"[1]; Female, Adults, median (1st quartile, 3rd quartile)","62.3 (33.5, 102.0) ng/mL"
same,C/D,[1]; [4],0.51 (ng/ml)/(mg/d)
same,Serum Concentration,[1]; [4],62.3 ng/mL
same,Serum Concentration,"[1]; Female, Children and Adolescents, median (1st quartile, 3rd quartile)","53.2 (32.4, 86.2) ng/mL"
same,Serum Concentration,"[1]; Female, Total, median (1st quartile, 3rd quartile)","57.0 (32.9, 95.5) ng/mL"
same,Serum Concentration,"[1]; Male, Adults, median (1st quartile, 3rd quartile)","55.8 (35.0, 86.0) ng/mL"
same,Serum Concentration,"[1]; Male, Adults, median (1st quartile, 3rd quartile), listed as sertraline",55.8 ng/mL
same,Serum Concentration,"[1]; Male, Children and Adolescents, median (1st quartile, 3rd quartile)","41.8 (23.9, 65.5) ng/mL"
same,Serum Concentration,"[1]; Male, Total, median (1st quartile, 3rd quartile)","52.4 (31.6, 81.3) ng/mL"
same,C/D (dose-adjusted serum concentration),"[1]; Total, median (1st quartile, 3rd quartile)","0.47 (0.32, 0.69) (ng/ml)/(mg/d)"
same,Coefficient of variation (CV) of C/D value,"[1]; adults, interindividual",61.1%
same,Coefficient of variation (CV) of sertraline concentration,"[1]; adults, interindividual",68.0%
same,Coefficient of variation (CV) of C/D value,"[1]; younger patients (children and adolescents), interindividual",80.6%
same,effective daily range,[2],50 to 150 mg
same,reference range of serum concentration,"[3]; children and adolescents, TDM-VIGIL study",66 to 76 ng/mL
same,coefficient of variation of concentration,[3]; interindividual pharmacokinetic variability,59%
